Source: ChEMBL document CHEMBL3769388, “Optimization of a Dicarboxylic Series for in Vivo Inhibition of Citrate Transport by the Solute Carrier 13 (SLC13) Family” (J Med Chem, 2016)
The source made the active and inactive calls. The rule behind the calls is not given here.

Tests used:
[1] = Renal clearance in Wistar Han rat at 1 mg/kg, iv by LC-MS/MS analysis; format: ADME, organism-based, Kidney; details: in vivo
[2] = species on record: Homo sapiens; test: Inhibition of PDE3A1 (unknown origin)
[3] = target: Alpha-2A adrenergic receptor (Homo sapiens) (UniProt P08913); test: Inhibition of ADRA2A (unknown origin)
Sequence of Alpha-2A adrenergic receptor (Homo sapiens) (P08913 whole entry): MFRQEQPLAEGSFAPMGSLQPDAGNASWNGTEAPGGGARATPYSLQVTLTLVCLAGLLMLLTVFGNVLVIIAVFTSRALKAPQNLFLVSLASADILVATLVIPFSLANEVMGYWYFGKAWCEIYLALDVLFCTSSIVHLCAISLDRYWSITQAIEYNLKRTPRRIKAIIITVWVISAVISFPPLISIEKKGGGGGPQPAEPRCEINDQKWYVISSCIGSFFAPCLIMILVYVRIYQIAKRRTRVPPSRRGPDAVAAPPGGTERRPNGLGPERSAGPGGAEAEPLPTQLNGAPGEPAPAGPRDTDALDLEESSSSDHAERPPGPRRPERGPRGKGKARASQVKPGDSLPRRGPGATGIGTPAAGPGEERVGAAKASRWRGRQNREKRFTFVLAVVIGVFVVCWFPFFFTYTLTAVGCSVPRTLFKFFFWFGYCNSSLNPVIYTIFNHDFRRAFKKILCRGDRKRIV

[4] = target: Beta-2 adrenergic receptor (Homo sapiens) (UniProt P07550); test: Inhibition of ADRB2 (unknown origin)
Sequence of Beta-2 adrenergic receptor (Homo sapiens) (P07550 whole entry, looked up): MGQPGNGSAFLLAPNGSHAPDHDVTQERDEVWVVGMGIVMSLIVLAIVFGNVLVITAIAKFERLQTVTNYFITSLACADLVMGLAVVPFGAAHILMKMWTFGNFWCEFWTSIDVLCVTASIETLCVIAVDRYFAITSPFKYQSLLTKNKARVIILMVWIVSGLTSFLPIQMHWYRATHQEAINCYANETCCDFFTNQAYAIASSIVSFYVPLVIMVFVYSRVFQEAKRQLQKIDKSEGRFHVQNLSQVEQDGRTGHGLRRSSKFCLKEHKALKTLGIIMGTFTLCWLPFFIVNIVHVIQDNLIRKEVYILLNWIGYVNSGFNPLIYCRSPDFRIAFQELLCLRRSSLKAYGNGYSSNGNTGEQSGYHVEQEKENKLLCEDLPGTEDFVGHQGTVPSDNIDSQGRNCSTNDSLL

[5] = target: 5-hydroxytryptamine receptor 1B (Homo sapiens) (UniProt P28222); test: Inhibition of 5HT1B (unknown origin)
Sequence of 5-hydroxytryptamine receptor 1B (Homo sapiens) (P28222 whole entry): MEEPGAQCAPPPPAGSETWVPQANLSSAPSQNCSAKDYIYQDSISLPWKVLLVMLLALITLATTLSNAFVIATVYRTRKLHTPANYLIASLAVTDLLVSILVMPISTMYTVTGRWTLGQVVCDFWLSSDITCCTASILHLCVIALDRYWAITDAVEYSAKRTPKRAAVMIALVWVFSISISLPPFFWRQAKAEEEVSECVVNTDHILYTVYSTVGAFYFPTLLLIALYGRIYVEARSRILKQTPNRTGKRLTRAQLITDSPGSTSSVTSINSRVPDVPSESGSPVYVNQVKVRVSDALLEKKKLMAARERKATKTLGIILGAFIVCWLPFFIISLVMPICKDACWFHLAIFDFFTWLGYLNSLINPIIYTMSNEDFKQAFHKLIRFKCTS

Q: For COc1ncc(C)cc1CC[C@@](O)(CC(=O)O)C(=O)O, which CL renal [1] is on record?
A: 4.4 mL/min/kg

Q: What about the inhibition [2] of the same compound?
A: inactive

Q: And the inhibition [3]?
A: inactive

Q: And the inhibition [4]?
A: inactive

Q: What about the inhibition [5] of the same compound?
A: inactive
